In patent US9902736B2, “1-oxo/acylation-14-acylated oridonin derivative, preparation method therefor and application thereof” (HANGZHOU BENSHENG PHARMACEUTICAL CO., LTD., priority 2012, dated 2018):
≈ marks a conversion by molar mass, not a printed value.

Test system: K562/ADR
Assay: Leukemia cell growth inhibition, MTT, 72 h
Assay type: cell-based
Conditions: Homo sapiens
Method in brief: (§1)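 Viability determined by MTT following a 72-hour, 37° C, 5% CO2 incubation with test compounds at different concentrations, added the day after seeding 6000 cells per well.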

IC50	IC90	Structure (SMILES)
0.45 µg/mL (≈ 0.832 µM)	1.72 µg/mL (≈ 3.18 µM)	C=C1C(=O)[C@]23[C@H](OC(=O)c4ccc(OC)cc4)[C@H]1CC[C@H]2[C@@]12CO[C@@]3(O)[C@@H](O)[C@@H]1C(C)(C)CCC2OC(C)=O (stereo partly drawn) [BS-OR-091]

Test system: Kasumi-1
Assay: Leukemia cell growth inhibition, MTT, 72 h
Assay type: cell-based
Conditions: Homo sapiens
Method in brief: as §1

IC50	IC90	Structure (SMILES)
0.52 µg/mL (≈ 0.962 µM)	1.22 µg/mL (≈ 2.26 µM)	C=C1C(=O)[C@]23[C@H](OC(=O)c4ccc(OC)cc4)[C@H]1CC[C@H]2[C@@]12CO[C@@]3(O)[C@@H](O)[C@@H]1C(C)(C)CCC2OC(C)=O (stereo partly drawn) [BS-OR-091]

Test system: H9
Assay: Leukemia cell growth inhibition, MTT, 72 h
Assay type: cell-based, human
Conditions: Homo sapiens, H9; 72 h, MTT
Method in brief: as §1

IC50	IC90	Structure (SMILES)
0.14 µg/mL (≈ 0.259 µM)	0.46 µg/mL (≈ 0.851 µM)	C=C1C(=O)[C@]23[C@H](OC(=O)c4ccc(OC)cc4)[C@H]1CC[C@H]2[C@@]12CO[C@@]3(O)[C@@H](O)[C@@H]1C(C)(C)CCC2OC(C)=O (stereo partly drawn) [BS-OR-091]

Test system: Jurkat
Assay: Leukemia cell growth inhibition, MTT, 72 h
Assay type: cell-based, human
Conditions: Homo sapiens, Jurkat; 72 h, MTT
Method in brief: as §1

IC50	IC90	Structure (SMILES)
0.55 µg/mL (≈ 1.02 µM)	2.31 µg/mL (≈ 4.27 µM)	C=C1C(=O)[C@]23[C@H](OC(=O)c4ccc(OC)cc4)[C@H]1CC[C@H]2[C@@]12CO[C@@]3(O)[C@@H](O)[C@@H]1C(C)(C)CCC2OC(C)=O (stereo partly drawn) [BS-OR-091]

Test system: NB4
Assay: Leukemia cell growth inhibition, MTT, 72 h
Assay type: cell-based, human
Conditions: Homo sapiens, NB-4; 72 h, MTT
Method in brief: as §1

IC50	IC90	Structure (SMILES)
0.13 µg/mL (≈ 0.24 µM)	0.73 µg/mL (≈ 1.35 µM)	C=C1C(=O)[C@]23[C@H](OC(=O)c4ccc(OC)cc4)[C@H]1CC[C@H]2[C@@]12CO[C@@]3(O)[C@@H](O)[C@@H]1C(C)(C)CCC2OC(C)=O (stereo partly drawn) [BS-OR-091]

Test system: RPMI 8226
Assay: Multiple myeloma cell growth inhibition, MTT, 72 h
Assay type: cell-based
Conditions: Homo sapiens
Method in brief: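 Growth inhibition by MTT after 72 h drug exposure (37 °C, 5% CO2) over a concentration range of oridonin derivatives. RPMI 8226 cells plated at 6000 per well and dosed the following day.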

IC50	IC90	Structure (SMILES)
0.37 µg/mL (≈ 0.684 µM)	1.8 µg/mL (≈ 3.33 µM)	C=C1C(=O)[C@]23[C@H](OC(=O)c4ccc(OC)cc4)[C@H]1CC[C@H]2[C@@]12CO[C@@]3(O)[C@@H](O)[C@@H]1C(C)(C)CCC2OC(C)=O (stereo partly drawn) [BS-OR-091]

Test system: CNE
Assay: Solid tumor cell growth inhibition, MTT, 72 h
Assay type: cell-based, human
Conditions: Homo sapiens, CNE; 72 h, MTT
Method in brief: (§2)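 After overnight-scale attachment (24 hours, 37° C, 5% CO2) in 10% FBS high-glucose DMEM, wells holding 6000 cells were dosed with varying compound concentrations and later scored for viable cell concentration.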

IC50	IC90	Structure (SMILES)
1.18 µg/mL (≈ 2.18 µM)	4.52 µg/mL (≈ 8.36 µM)	C=C1C(=O)[C@]23[C@H](OC(=O)c4ccc(OC)cc4)[C@H]1CC[C@H]2[C@@]12CO[C@@]3(O)[C@@H](O)[C@@H]1C(C)(C)CCC2OC(C)=O (stereo partly drawn) [BS-OR-091]

Test system: Hela
Assay: Solid tumor cell growth inhibition, MTT, 72 h
Assay type: cell-based, human
Conditions: Homo sapiens, HeLa; 72 h, MTT
Method in brief: as §2

IC50	IC90	Structure (SMILES)
1.28 µg/mL (≈ 2.37 µM)	3.51 µg/mL (≈ 6.49 µM)	C=C1C(=O)[C@]23[C@H](OC(=O)c4ccc(OC)cc4)[C@H]1CC[C@H]2[C@@]12CO[C@@]3(O)[C@@H](O)[C@@H]1C(C)(C)CCC2OC(C)=O (stereo partly drawn) [BS-OR-091]

Test system: Hep-2
Assay: Solid tumor cell growth inhibition, MTT, 72 h
Assay type: cell-based, human
Conditions: Homo sapiens, HEp-2; 72 h, MTT
Method in brief: as §2

IC50	IC90	Structure (SMILES)
0.96 µg/mL (≈ 1.78 µM)	6.65 µg/mL (≈ 12.3 µM)	C=C1C(=O)[C@]23[C@H](OC(=O)c4ccc(OC)cc4)[C@H]1CC[C@H]2[C@@]12CO[C@@]3(O)[C@@H](O)[C@@H]1C(C)(C)CCC2OC(C)=O (stereo partly drawn) [BS-OR-091]

Same assay, conditions: in comparison with oridonin

Structure (SMILES)	anti-Hep-2 activity increased
C=C1C(=O)[C@]23[C@H](OC(=O)c4ccc(OC)cc4)[C@H]1CC[C@H]2[C@@]12CO[C@@]3(O)[C@@H](O)[C@@H]1C(C)(C)CCC2OC(C)=O (stereo partly drawn) [BS-OR-091]	~5 fold

Test system: MGC-803
Assay: Solid tumor cell growth inhibition, MTT, 72 h
Assay type: cell-based, human
Conditions: Homo sapiens, MGC-803; 72 h, MTT
Method in brief: as §2

IC50	IC90	Structure (SMILES)
0.59 µg/mL (≈ 1.09 µM)	5.7 µg/mL (≈ 10.5 µM)	C=C1C(=O)[C@]23[C@H](OC(=O)c4ccc(OC)cc4)[C@H]1CC[C@H]2[C@@]12CO[C@@]3(O)[C@@H](O)[C@@H]1C(C)(C)CCC2OC(C)=O (stereo partly drawn) [BS-OR-091]

Same assay, conditions: in comparison with oridonin

Structure (SMILES)	anti-MGC-803 activity increased
C=C1C(=O)[C@]23[C@H](OC(=O)c4ccc(OC)cc4)[C@H]1CC[C@H]2[C@@]12CO[C@@]3(O)[C@@H](O)[C@@H]1C(C)(C)CCC2OC(C)=O (stereo partly drawn) [BS-OR-091]	~10 fold

Test system: A549
Assay: Solid tumor cell growth inhibition, MTT, 72 h
Assay type: cell-based
Conditions: Homo sapiens
Method in brief: as §2

IC50	IC90	Structure (SMILES)
2.38 µg/mL (≈ 4.4 µM)	7.54 µg/mL (≈ 13.9 µM)	C=C1C(=O)[C@]23[C@H](OC(=O)c4ccc(OC)cc4)[C@H]1CC[C@H]2[C@@]12CO[C@@]3(O)[C@@H](O)[C@@H]1C(C)(C)CCC2OC(C)=O (stereo partly drawn) [BS-OR-091]

Test system: Becap-37
Assay: Solid tumor cell growth inhibition, MTT, 72 h
Assay type: cell-based
Conditions: Homo sapiens
Method in brief: as §2

IC50	IC90	Structure (SMILES)
1.26 µg/mL (≈ 2.33 µM)	2.48 µg/mL (≈ 4.59 µM)	C=C1C(=O)[C@]23[C@H](OC(=O)c4ccc(OC)cc4)[C@H]1CC[C@H]2[C@@]12CO[C@@]3(O)[C@@H](O)[C@@H]1C(C)(C)CCC2OC(C)=O (stereo partly drawn) [BS-OR-091]

Test system: CaEs-17
Assay: Solid tumor cell growth inhibition, MTT, 72 h
Assay type: cell-based
Conditions: Homo sapiens, CaEs17
Method in brief: as §2

IC50	IC90	Structure (SMILES)
0.99 µg/mL (≈ 1.83 µM)	4.83 µg/mL (≈ 8.93 µM)	C=C1C(=O)[C@]23[C@H](OC(=O)c4ccc(OC)cc4)[C@H]1CC[C@H]2[C@@]12CO[C@@]3(O)[C@@H](O)[C@@H]1C(C)(C)CCC2OC(C)=O (stereo partly drawn) [BS-OR-091]

Test system: Hep G2
Assay: Solid tumor cell growth inhibition, MTT, 72 h
Assay type: cell-based
Conditions: Homo sapiens, HepG2
Method in brief: as §2

IC50	IC90	Structure (SMILES)
1.4 µg/mL (≈ 2.59 µM)	6.28 µg/mL (≈ 11.6 µM)	C=C1C(=O)[C@]23[C@H](OC(=O)c4ccc(OC)cc4)[C@H]1CC[C@H]2[C@@]12CO[C@@]3(O)[C@@H](O)[C@@H]1C(C)(C)CCC2OC(C)=O (stereo partly drawn) [BS-OR-091]

Test system: MG-63
Assay: Solid tumor cell growth inhibition, MTT, 72 h
Assay type: cell-based
Conditions: Homo sapiens
Method in brief: as §2

IC50	IC90	Structure (SMILES)
0.49 µg/mL (≈ 0.906 µM)	1.46 µg/mL (≈ 2.7 µM)	C=C1C(=O)[C@]23[C@H](OC(=O)c4ccc(OC)cc4)[C@H]1CC[C@H]2[C@@]12CO[C@@]3(O)[C@@H](O)[C@@H]1C(C)(C)CCC2OC(C)=O (stereo partly drawn) [BS-OR-091]

Test system: PANC-1
Assay: Solid tumor cell growth inhibition, MTT, 72 h
Assay type: cell-based
Conditions: Homo sapiens
Method in brief: as §2

IC50	IC90	Structure (SMILES)
1.69 µg/mL (≈ 3.13 µM)	5.65 µg/mL (≈ 10.5 µM)	C=C1C(=O)[C@]23[C@H](OC(=O)c4ccc(OC)cc4)[C@H]1CC[C@H]2[C@@]12CO[C@@]3(O)[C@@H](O)[C@@H]1C(C)(C)CCC2OC(C)=O (stereo partly drawn) [BS-OR-091]

Test system: PC-3
Assay: Solid tumor cell growth inhibition, MTT, 72 h
Assay type: cell-based
Conditions: Homo sapiens
Method in brief: as §2

IC50	IC90	Structure (SMILES)
1.75 µg/mL (≈ 3.24 µM)	4.71 µg/mL (≈ 8.71 µM)	C=C1C(=O)[C@]23[C@H](OC(=O)c4ccc(OC)cc4)[C@H]1CC[C@H]2[C@@]12CO[C@@]3(O)[C@@H](O)[C@@H]1C(C)(C)CCC2OC(C)=O (stereo partly drawn) [BS-OR-091]

Test system: RKO
Assay: Solid tumor cell growth inhibition, MTT, 72 h
Assay type: cell-based
Conditions: Homo sapiens
Method in brief: as §2

IC50	IC90	Structure (SMILES)
0.41 µg/mL (≈ 0.758 µM)	0.93 µg/mL (≈ 1.72 µM)	C=C1C(=O)[C@]23[C@H](OC(=O)c4ccc(OC)cc4)[C@H]1CC[C@H]2[C@@]12CO[C@@]3(O)[C@@H](O)[C@@H]1C(C)(C)CCC2OC(C)=O (stereo partly drawn) [BS-OR-091]

Test system: SK-OV-3
Assay: Solid tumor cell growth inhibition, MTT, 72 h
Assay type: cell-based
Conditions: Homo sapiens, SK-OV-3; 72 h, MTT; read-out: IC50 SK-OV-3
Method in brief: as §2

IC50	Structure (SMILES)
1.75 µg/mL (≈ 3.24 µM)	C=C1C(=O)[C@]23[C@H](OC(=O)c4ccc(OC)cc4)[C@H]1CC[C@H]2[C@@]12CO[C@@]3(O)[C@@H](O)[C@@H]1C(C)(C)CCC2OC(C)=O (stereo partly drawn) [BS-OR-091]

Same assay, conditions: Homo sapiens, SK-OV-3; 72 h, MTT; read-out: IC90 SK-OV-3

IC90	Structure (SMILES)
4.71 µg/mL (≈ 8.71 µM)	C=C1C(=O)[C@]23[C@H](OC(=O)c4ccc(OC)cc4)[C@H]1CC[C@H]2[C@@]12CO[C@@]3(O)[C@@H](O)[C@@H]1C(C)(C)CCC2OC(C)=O (stereo partly drawn) [BS-OR-091]

Test system: U87-MG
Assay: Solid tumor cell growth inhibition, MTT, 72 h
Assay type: cell-based
Conditions: Homo sapiens, U-87 MG
Method in brief: as §2

IC50	IC90	Structure (SMILES)
0.67 µg/mL (≈ 1.24 µM)	1.98 µg/mL (≈ 3.66 µM)	C=C1C(=O)[C@]23[C@H](OC(=O)c4ccc(OC)cc4)[C@H]1CC[C@H]2[C@@]12CO[C@@]3(O)[C@@H](O)[C@@H]1C(C)(C)CCC2OC(C)=O (stereo partly drawn) [BS-OR-091]
